ChEMBL document CHEMBL3046208, “Natural and synthetic podolactones with potential use as natural herbicide models” (2000)
The source made the active and inactive calls. The rule behind the calls is not given here.

Tests used:
Assay type in all cases: functional
Lactuca sativa [1] = experiment: Stimulation of shoot length of Lactuca sativa cv. Roman (lettuce) at 0.1 mM after 5 days relative to untreated control
Hordeum vulgare [2] = experiment: Inhibition of shoot length of Hordeum vulgare (barley) at 0.1 mM after 5 days relative to untreated control
Lepidium sativum [3] = experiment: Stimulation of germination of Lepidium sativum at 0.1 mM after 5 days relative to untreated control
Triticum aestivum [4] = experiment: Inhibition of shoot length of Triticum aestivum (wheat) at 0.1 mM after 5 days relative to untreated control
Lepidium sativum [5] = experiment: Inhibition of shoot length of Lepidium sativum at 0.1 mM after 5 days relative to untreated control; settings: for inhibition at 100 µM: 120 h
Lactuca sativa [6] = experiment: Inhibition of shoot length of Lactuca sativa cv. Roman (lettuce) at 0.1 mM after 5 days relative to untreated control; settings: 120 h
Solanum lycopersicum [7] = experiment: Stimulation of root length of Solanum lycopersicum (tomato) at 0.1 mM after 5 days relative to untreated control
Lactuca sativa [8] = experiment: Inhibition of germination of Lactuca sativa cv. Nigra (lettuce) at 0.1 mM after 5 days relative to untreated control; settings: for inhibition at 100 µM: 120 h
Allium cepa [9] = experiment: Inhibition of shoot length of Allium cepa (onion) at 0.1 mM after 5 days relative to untreated control; settings: 120 h
Allium cepa [10] = experiment: Stimulation of root length of Allium cepa (onion) at 0.1 mM after 5 days relative to untreated control
Hordeum vulgare [11] = experiment: Stimulation of root length of Hordeum vulgare (barley) at 0.1 mM after 5 days relative to untreated control
Lactuca sativa [12] = experiment: Inhibition of germination of Lactuca sativa cv. Roman (lettuce) at 0.1 mM after 5 days relative to untreated control; settings: 120 h
Triticum aestivum [13] = experiment: Stimulation of root length of Triticum aestivum (wheat) at 0.1 mM after 5 days relative to untreated control
Lactuca sativa [14] = experiment: Stimulation of germination of Lactuca sativa cv. Roman (lettuce) at 0.1 mM after 5 days relative to untreated control
Triticum aestivum [15] = experiment: Stimulation of shoot length of Triticum aestivum (wheat) at 0.1 mM after 5 days relative to untreated control
Lepidium sativum [16] = experiment: Inhibition of germination of Lepidium sativum at 0.1 mM after 5 days relative to untreated control
Lepidium sativum [17] = experiment: Stimulation of shoot length of Lepidium sativum at 0.1 mM after 5 days relative to untreated control
Solanum lycopersicum [18] = experiment: Stimulation of shoot length of Solanum lycopersicum (tomato) at 0.1 mM after 5 days relative to untreated control
Lepidium sativum [19] = experiment: Inhibition of root length of Lepidium sativum at 0.1 mM after 5 days relative to untreated control; settings: for inhibition at 100 µM: 120 h
Lactuca sativa [20] = experiment: Inhibition of root length of Lactuca sativa cv. Roman (lettuce) at 0.1 mM after 5 days relative to untreated control
Solanum lycopersicum [21] = experiment: Inhibition of germination of Solanum lycopersicum (tomato) at 0.1 mM after 5 days relative to untreated control; settings: for inhibition at 100 µM: 120 h
Hordeum vulgare [22] = experiment: Stimulation of shoot length of Hordeum vulgare (barley) at 0.1 mM after 5 days relative to untreated control
Lactuca sativa [23] = experiment: Inhibition of root length of Lactuca sativa cv. Nigra (lettuce) at 0.1 mM after 5 days relative to untreated control
Solanum lycopersicum [24] = experiment: Inhibition of root length of Solanum lycopersicum (tomato) at 0.1 mM after 5 days relative to untreated control; settings: for inhibition at 100 µM: 120 h
Solanum lycopersicum [25] = experiment: Stimulation of germination of Solanum lycopersicum (tomato) at 0.1 mM after 5 days relative to untreated control
Lactuca sativa [26] = experiment: Stimulation of germination of Lactuca sativa cv. Nigra (lettuce) at 0.1 mM after 5 days relative to untreated control
Solanum lycopersicum [27] = experiment: Inhibition of shoot length of Solanum lycopersicum (tomato) at 0.1 mM after 5 days relative to untreated control; settings: for inhibition at 100 µM: 120 h
Triticum aestivum [28] = experiment: Inhibition of germination of Triticum aestivum (wheat) at 0.1 mM after 5 days relative to untreated control
Hordeum vulgare [29] = experiment: Inhibition of root length of Hordeum vulgare (barley) at 0.1 mM after 5 days relative to untreated control; settings: 120 h
Hordeum vulgare [30] = experiment: Inhibition of germination of Hordeum vulgare (barley) at 0.1 mM after 5 days relative to untreated control; settings: 120 h
Allium cepa [31] = experiment: Inhibition of root length of Allium cepa (onion) at 0.1 mM after 5 days relative to untreated control; settings: 120 h
Allium cepa [32] = experiment: Inhibition of germination of Allium cepa (onion) at 0.1 mM after 5 days relative to untreated control; settings: 120 h
Lactuca sativa [33] = experiment: Inhibition of shoot length of Lactuca sativa cv. Nigra (lettuce) at 0.1 mM after 5 days relative to untreated control; settings: for inhibition at 100 µM: 120 h
Allium cepa [34] = experiment: Stimulation of germination of Allium cepa (onion) at 0.1 mM after 5 days relative to untreated control
Hordeum vulgare [35] = experiment: Stimulation of germination of Hordeum vulgare (barley) at 0.1 mM after 5 days relative to untreated control
Lactuca sativa [36] = experiment: Stimulation of shoot length of Lactuca sativa cv. Nigra (lettuce) at 0.1 mM after 5 days relative to untreated control
Allium cepa [37] = experiment: Stimulation of shoot length of Allium cepa (onion) at 0.1 mM after 5 days relative to untreated control
Triticum aestivum [38] = experiment: Inhibition of root length of Triticum aestivum (wheat) at 0.1 mM after 5 days relative to untreated control; settings: for inhibition at 100 µM: 120 h
Triticum aestivum [39] = experiment: Stimulation of germination of Triticum aestivum (wheat) at 0.1 mM after 5 days relative to untreated control
Lepidium sativum [40] = experiment: Stimulation of root length of Lepidium sativum at 0.1 mM after 5 days relative to untreated control
Lactuca sativa [41] = experiment: Stimulation of root length of Lactuca sativa cv. Roman (lettuce) at 0.1 mM after 5 days relative to untreated control
Lactuca sativa [42] = experiment: Stimulation of root length of Lactuca sativa cv. Nigra (lettuce) at 0.1 mM after 5 days relative to untreated control

SMILES: COC(=O)[C@@]1(C)CCC[C@]2(C)C3=CC(=O)OC[C@]34O[C@@H]4C[C@@H]12
- Activity (Lactuca sativa [1]): <20%
- inhibition at 100 µM (Hordeum vulgare [2]; 120 h): < 20%
- Activity (Lepidium sativum [3]): inactive
- inhibition (Triticum aestivum [4]): inactive
- inhibition (Lepidium sativum [5]): inactive
- inhibition at 100 µM (Lactuca sativa [6]): < 20%
- Activity (Solanum lycopersicum [7]): <20%
- inhibition (Lactuca sativa [8]): inactive
- inhibition at 100 µM (Allium cepa [9]): < 20%
- Activity (Allium cepa [10]): <20%
- Activity (Hordeum vulgare [11]): 20%
- inhibition at 100 µM (Lactuca sativa [12]): < 20%
- Activity (Triticum aestivum [13]): 20%
- Activity (Lactuca sativa [14]): <20%
- Activity (Triticum aestivum [15]): inactive
- inhibition (Lepidium sativum [16]): inactive
- Activity (Lepidium sativum [17]): inactive
- Activity (Solanum lycopersicum [18]): 20%
- inhibition (Lepidium sativum [19]): inactive
- inhibition (Lactuca sativa [20]): inactive
- inhibition at 100 µM (Solanum lycopersicum [21]): 20%
- Activity (Hordeum vulgare [22]): <20%
- inhibition (Lactuca sativa [23]): inactive
- inhibition at 100 µM (Solanum lycopersicum [24]): < 20%
- Activity (Solanum lycopersicum [25]): 20%
- Activity (Lactuca sativa [26]): inactive
- inhibition at 100 µM (Solanum lycopersicum [27]): 20%
- inhibition (Triticum aestivum [28]): inactive
- inhibition at 100 µM (Hordeum vulgare [29]): 20%
- inhibition at 100 µM (Hordeum vulgare [30]): 20%
- inhibition at 100 µM (Allium cepa [31]): < 20%
- inhibition at 100 µM (Allium cepa [32]): < 20%
- inhibition (Lactuca sativa [33]): inactive
- Activity (Allium cepa [34]): <20%
- Activity (Hordeum vulgare [35]): 20%
- Activity (Lactuca sativa [36]): inactive
- Activity (Allium cepa [37]): <20%
- inhibition at 100 µM (Triticum aestivum [38]): 20%
- Activity (Triticum aestivum [39]): inactive
- Activity (Lepidium sativum [40]): inactive
- Activity (Lactuca sativa [41]): inactive
- Activity (Lactuca sativa [42]): inactive

SMILES: COC(=O)[C@@]1(C)CCC[C@]2(C)C3=CC(=O)O[C@H](C(C)C)C3=CC[C@@H]12
- Activity (Lactuca sativa [1]): <20%
- inhibition (Hordeum vulgare [2]): inactive
- Activity (Lepidium sativum [3]): inactive
- inhibition (Triticum aestivum [4]): inactive
- inhibition at 100 µM (Lepidium sativum [5]): < 20%
- inhibition at 100 µM (Lactuca sativa [6]): < 20%
- Activity (Solanum lycopersicum [7]): >40%
- inhibition at 100 µM (Lactuca sativa [8]): < 20%
- inhibition at 100 µM (Allium cepa [9]): 20%
- Activity (Allium cepa [10]): 20%
- Activity (Hordeum vulgare [11]): <20%
- inhibition at 100 µM (Lactuca sativa [12]): < 20%
- Activity (Triticum aestivum [13]): <20%
- Activity (Lactuca sativa [14]): <20%
- Activity (Triticum aestivum [15]): inactive
- inhibition (Lepidium sativum [16]): inactive
- Activity (Lepidium sativum [17]): <20%
- Activity (Solanum lycopersicum [18]): <20%
- inhibition at 100 µM (Lepidium sativum [19]): 20%
- inhibition at 100 µM (Lactuca sativa [20]; 120 h): < 20%
- inhibition at 100 µM (Solanum lycopersicum [21]): < 20%
- Activity (Hordeum vulgare [22]): inactive
- inhibition (Lactuca sativa [23]): inactive
- inhibition at 100 µM (Solanum lycopersicum [24]): > 40%
- Activity (Solanum lycopersicum [25]): <20%
- Activity (Lactuca sativa [26]): <20%
- inhibition at 100 µM (Solanum lycopersicum [27]): < 20%
- inhibition (Triticum aestivum [28]): inactive
- inhibition at 100 µM (Hordeum vulgare [29]): < 20%
- inhibition at 100 µM (Hordeum vulgare [30]): 20%
- inhibition at 100 µM (Allium cepa [31]): 20%
- inhibition at 100 µM (Allium cepa [32]): 20%
- inhibition at 100 µM (Lactuca sativa [33]): < 20%
- Activity (Allium cepa [34]): 20%
- Activity (Hordeum vulgare [35]): 20%
- Activity (Lactuca sativa [36]): <20%
- Activity (Allium cepa [37]): 20%
- inhibition at 100 µM (Triticum aestivum [38]): < 20%
- Activity (Triticum aestivum [39]): inactive
- Activity (Lepidium sativum [40]): 20%
- Activity (Lactuca sativa [41]): <20%
- Activity (Lactuca sativa [42]): inactive

SMILES: COC(=O)[C@@]1(C)CCC[C@]2(C)C3=CC(=O)OCC3=CC[C@@H]12
- Activity (Lactuca sativa [1]): <20%
- inhibition (Hordeum vulgare [2]): inactive
- Activity (Lepidium sativum [3]): inactive
- inhibition (Triticum aestivum [4]): inactive
- inhibition at 100 µM (Lepidium sativum [5]): 20%
- inhibition at 100 µM (Lactuca sativa [6]): < 20%
- Activity (Solanum lycopersicum [7]): inactive
- inhibition at 100 µM (Lactuca sativa [8]): 20%
- inhibition at 100 µM (Allium cepa [9]): 20%
- Activity (Allium cepa [10]): 20%
- Activity (Hordeum vulgare [11]): >40%
- inhibition at 100 µM (Lactuca sativa [12]): < 20%
- Activity (Triticum aestivum [13]): inactive
- Activity (Lactuca sativa [14]): <20%
- Activity (Triticum aestivum [15]): inactive
- inhibition (Lepidium sativum [16]): inactive
- Activity (Lepidium sativum [17]): 20%
- Activity (Solanum lycopersicum [18]): inactive
- inhibition at 100 µM (Lepidium sativum [19]): 20%
- inhibition (Lactuca sativa [20]): inactive
- inhibition (Solanum lycopersicum [21]): inactive
- Activity (Hordeum vulgare [22]): inactive
- inhibition at 100 µM (Lactuca sativa [23]; 120 h): < 20%
- inhibition (Solanum lycopersicum [24]): inactive
- Activity (Solanum lycopersicum [25]): inactive
- Activity (Lactuca sativa [26]): 20%
- inhibition (Solanum lycopersicum [27]): inactive
- inhibition (Triticum aestivum [28]): inactive
- inhibition at 100 µM (Hordeum vulgare [29]): > 40%
- inhibition at 100 µM (Hordeum vulgare [30]): 20%
- inhibition at 100 µM (Allium cepa [31]): 20%
- inhibition at 100 µM (Allium cepa [32]): < 20%
- inhibition at 100 µM (Lactuca sativa [33]): < 20%
- Activity (Allium cepa [34]): <20%
- Activity (Hordeum vulgare [35]): 20%
- Activity (Lactuca sativa [36]): <20%
- Activity (Allium cepa [37]): 20%
- inhibition (Triticum aestivum [38]): inactive
- Activity (Triticum aestivum [39]): inactive
- Activity (Lepidium sativum [40]): 20%
- Activity (Lactuca sativa [41]): inactive
- Activity (Lactuca sativa [42]): <20%
